Data as given in ChEMBL document CHEMBL5252574, “α-Synuclein Aggregation Inhibitory Procerolides and Diphenylalkanes from the Ascidian Polycarpa procera” (J Nat Prod, 2023).
Activity calls are given as the source filed them. The rule behind the calls is not given here.

Legend:
[1] = target: Alpha-synuclein (Homo sapiens) (UniProt P37840); experiment: Inhibition of human alpha-syn expressed in Escherichia coli BL21 (DE3) cells aggregation incubated for 36 hrs by ThT dye based fluorescence assay
[2] = system: Staphylococcus aureus; experiment: Antibacterial activity against methicillin-susceptible Staphylococcus aureus ATCC 25923 incubated for 18 hrs by microdilution method; format: functional, organism-based
[3] = system: Staphylococcus aureus; experiment: Antibacterial activity against methicillin- resistant Staphylococcus aureus ATCC 43300 incubated for 18 hrs by microdilution method; format: functional, organism-based
[4] = system: Pseudomonas aeruginosa; experiment: Antibacterial activity against Pseudomonas aeruginosa ATCC 27853 incubated for 18 hrs by microdilution method; format: functional, organism-based

SMILES	inhibition [1]	Activity [2]	Activity [3]	Activity [4]
CCCC(C)CC1(C(=O)OCC)OC(=O)C(O)=C1c1ccc(OC)cc1 (configuration not stated)	inactive	–	–	–
CCOC(=O)C1(Cc2ccccc2)OC(=O)C(O)=C1c1ccccc1 (configuration not stated)	inactive	–	–	–
CCOC(=O)C1(Cc2ccc(OC)cc2)OC(=O)C(O)=C1c1ccc(OC)cc1 (configuration not stated)	inactive	–	–	–
CCOC(=O)C1(Cc2ccc(C)cc2)OC(=O)C(O)=C1c1ccc(C)cc1 (configuration not stated)	inactive	–	–	–
CCOC(=O)C1(Cc2ccccc2)OC(=O)C(O)=C1c1ccc(OC)cc1 (configuration not stated)	inactive	–	–	–
CCOC(=O)C1(Cc2ccc(OC)cc2)OC(=O)C(O)=C1c1ccccc1 (configuration not stated)	inactive	–	–	–
CCOC(=O)C1(Cc2cccc(OC)c2)OC(=O)C(O)=C1c1cccc(OC)c1 (configuration not stated)	inactive	–	–	–
COC1=C(c2cc(Br)c(O)c(Br)c2)[C@H](Cc2ccc(OC)c(Br)c2)OC1=O	–	inactive	inactive	inactive
CCOC(=O)C1(Cc2ccc(Cl)cc2)OC(=O)C(O)=C1c1ccc(Cl)cc1 (configuration not stated)	inactive	–	–	–
COC1=C(c2cc(Br)c(O)c(Br)c2)[C@H](Cc2cc(Br)c(OC)c(Br)c2)OC1=O	–	inactive	inactive	inactive
COc1ccc(C[C@H](O)C(=O)c2cc(Br)c(O)c(Br)c2)cc1Br	–	inactive	inactive	inactive
